Data from patent publication US20230330093A1, “APPLICATION OF NITROGEN-CONTAINING SATURATED HETEROCYCLIC COMPOUND” (SHANGHAI PHARMACEUTICALS HOLDING CO., LTD., priority 2020, published 2023).
“And” between values parts separate entries of the source, which are not always exact repeats. Equal values may be shown once.

Columns and labels:
[1] = system: rhesus monkeys with spontaneous chronic kidney disease; assay: Effect on BUN, 8-week administration; type: in vivo, Macaca mulatta (Rhesus Macaque); conditions: Valsartan group (n = 3)
Method: (§1) In the trial, animals were brought in three stages. […] Glomerular filtration rate […]: creatinine (Cr-P), urea nitrogen (BUN) and cystatin (CysC) were detected, and the eGFR value was obtained by calculation. It was performed once before the administration and once every two weeks after the administration. […] ELISA kit was used for NT-proBNP test. [table]

[2] = system: rhesus monkeys with spontaneous chronic kidney disease; assay: Effect on serum K+, 8-week administration; conditions: Valsartan group (n = 3)
Method: In the trial, animals were brought in three stages. In the first stage, there were two groups: 3 animals (No. 257, No. 4721, No. 287) in a group with 5 mg/kg of the malate of compound of formula I, and 2 animals (No. 1029, No. 4713) in the placebo group. […] In the third stage, there were two groups: 5 animals (No. 4829, No. 6501, No. 287, No. 4721, No. 2091) in a group with 2 mg/kg of the malate of compound of formula I, and 5 animals (No. 1567, No. 4861, No. 5453, No. 6653, No. 5073) in a group with 1 mg/kg of the malate of compound of formula I.
Serum potassium, twice before administration, once every 2 weeks during the administration period;
Blood biochemical and urine index detection equipment: Roche cobas6000 analyzer series C501 module detection. ELISA kit was used for NT-proBNP test.

[3] = system: rhesus monkeys with spontaneous chronic kidney disease; assay: Effect on cystatin C (CysC), 8-week administration; type: in vivo, Macaca mulatta (Rhesus Macaque); conditions: Valsartan group (n = 3)
Method: as §1

[4] = system: rhesus monkeys with spontaneous chronic kidney disease; assay: Effect on plasma creatinine Cr-P, 8-week administration; type: in vivo, Macaca mulatta (Rhesus Macaque); conditions: Valsartan group (n = 3)
Method: as §1

[5] = system: rhesus monkeys with spontaneous chronic kidney disease; assay: Effect on NT-proBNP (ELISA), 8-week administration; type: in vivo, Macaca mulatta (Rhesus Macaque); conditions: Valsartan group (n = 3)
Source text: In the trial, animals were brought in three stages. […] ELISA kit was used for NT-proBNP test. [table]

[6] = system: rhesus monkeys with spontaneous chronic kidney disease; assay: Effect on blood pressure (SBP, DBP, MBP, HR) after anesthesia, 8-week administration; type: in vivo, Macaca mulatta (Rhesus Macaque); conditions: for DBP / SBP: Valsartan group (n = 3)
Source text: In the trial, animals were brought in three stages.
Route of administration: Oral administration.
After anesthesia, the animal was placed in a supine position. The left upper arm was shaved clean, and a suitable size cuff was tied according to the standard. The blood oxygen probe was clamped on the animal's finger or toe (except for the left hand), and the red light-sensitive surface was on the side of the finger pad. The blood pressure of the animal was continuously measured for 3 times in the automatic mode with an interval of 1 min. If the difference of DBP, SBP and MBP of blood pressure measured more than three times was not significant (the difference between the highest value and the lowest value was less than 15 mmHg), the measurement was completed.
Testing equipment: GE B40i electrophysiological monitor.
See Table 16 for the effects of administration of each administration group on blood pressure. The blood pressure test of primates required anesthesia, so it was necessary to control the variability of heart rate at various time points to make statistics.

[7] = Baseline, single animals and Mean ± SD
[8] = Baseline, single animals and Mean ± SD, mean
[9] = Valsartan group (n=3), after W8 administration, p<0.01 vs placebo

In the case of `CCCCC(=O)N(Cc1ccc(-c2ccccc2-c2nnn[nH]2)cc1)[C@H](C(=O)O)C(C)C` [Valsartan, reference compound], the BUN ([1]; 4 weeks) is reported as 22.2 mg/dL and 29.1 mg/dL and 33.4 mg/dL, the BUN ([1]; 4 weeks, mean) is reported as 28.2 ± 5.7 mg/dL and the BUN ([1]; 8 weeks) is reported as 19.5 mg/dL and 33.4 mg/dL and 26.0 mg/dL. The BUN ([1]; 8 weeks, mean) was 26.3 ± 7.0 mg/dL, the BUN ([1]; Baseline2, single animals and Mean ± SD) was 19.0 mg/dL and 25.4 mg/dL and 31.2 mg/dL and the BUN ([1]; Baseline2, single animals and Mean ± SD, mean) was 25.2 ± 6.1 mg/dL. For the same compound, the “K^+” value ([2]; 2 weeks, Mean ± SD) was 5.09 ± 0.54 mmol/L, the “K^+” value ([2]; 2 weeks, individual animals) was 5.38 mmol/L and 4.47 mmol/L and 5.43 mmol/L and the “K^+” value ([2]; 4 weeks, Mean ± SD) was 5.04 ± 0.58 mmol/L. The “K^+” value ([2]; 4 weeks, individual animals) was 5.68 mmol/L and 4.55 mmol/L and 4.88 mmol/L, the “K^+” value ([2]; 6 weeks, Mean ± SD) was 5.06 ± 0.24 mmol/L and the “K^+” value ([2]; 6 weeks, individual animals) was 5.28 mmol/L and 4.81 mmol/L and 5.09 mmol/L. The “K^+” value ([2]; 8 weeks, Mean ± SD) was 5.13 ± 0.74 mmol/L, the “K^+” value ([2]; 8 weeks, individual animals) was 5.94 mmol/L and 4.50 mmol/L and 4.95 mmol/L and the “K^+” value ([2]; Baseline 1, Mean ± SD) was 4.37 ± 0.54 mmol/L. For the same compound, the “K^+” value ([2]; Baseline 1, individual animals) was 4.94 mmol/L and 3.86 mmol/L and 4.31 mmol/L, the “K^+” value ([2]; Baseline 2, Mean ± SD) was 4.66 ± 0.40 mmol/L and the “K^+” value ([2]; Baseline 2, individual animals) was 4.63 mmol/L and 4.27 mmol/L and 5.07 mmol/L. For the same compound, the CysC ([3]; 2 weeks) was 1.44 mg/L and 1.62 mg/L and 1.76 mg/L, the CysC ([3]; 2 weeks, mean) was 1.61 ± 0.16 mg/L and the CysC ([3]; 4 weeks) was 1.47 mg/L and 1.65 mg/L and 1.74 mg/L. For the same compound, the CysC ([3]; 4 weeks, mean) was 1.62 ± 0.14 mg/L, the CysC ([3]; 6 weeks) was 1.58 mg/L and 1.69 mg/L and the CysC ([3]; 6 weeks, mean) was 1.62 ± 0.06 mg/L. For the same compound, the CysC ([3]; 8 weeks) was 1.59 mg/L and 1.64 mg/L and 1.63 mg/L, the CysC ([3]; 8 weeks, mean) was 1.62 ± 0.03 mg/L and the CysC [3, 7] was 1.66 mg/L and 1.68 mg/L and 1.73 mg/L. The CysC [3, 8] was 1.69 ± 0.04 mg/L, the Cr-P ([4]; 2 weeks) was 1.12 mg/dL and 1.22 mg/dL and the Cr-P ([4]; 2 weeks, mean) was 1.15 ± 0.06 mg/dL. The Cr-P ([4]; 4 weeks) was 1.12 mg/dL and 1.08 mg/dL and 1.26 mg/dL, the Cr-P ([4]; 4 weeks, mean) was 1.15 ± 0.09 mg/dL and the Cr-P ([4]; 6 weeks) was 1.11 mg/dL and 1.26 mg/dL. For the same compound, the Cr-P ([4]; 6 weeks, mean) was 1.16 ± 0.09 mg/dL, the Cr-P ([4]; 8 weeks) was 1.09 mg/dL and 1.03 mg/dL and 1.26 mg/dL and the Cr-P ([4]; 8 weeks, mean) was 1.13 ± 0.12 mg/dL. For the same compound, the Cr-P [4, 7] was 1.28 mg/dL and 1.31 mg/dL and 1.50 mg/dL, the Cr-P [4, 8] was 1.36 ± 0.12 mg/dL and the NT-proBNP ([5]; 4 weeks) was 179 pg/mL and 260 pg/mL and 285 pg/mL. For the same compound, the NT-proBNP ([5]; 4 weeks, mean) was 241 ± 56 pg/mL, the NT-proBNP ([5]; 8 weeks) was 217 pg/mL and 288 pg/mL and 291 pg/mL and the NT-proBNP ([5]; 8 weeks, mean) was 266 ± 42 pg/mL. The NT-proBNP [5, 7] was 211 pg/mL and 500 pg/mL and 394 pg/mL, the NT-proBNP [5, 8] was 368 ± 146 pg/mL and the DBP ([6]; 4 weeks) was 62 mmHg and 53 mmHg. The SBP ([6]; 4 weeks) was 130 mmHg and 106 mmHg and 138 mmHg, the DBP ([6]; 4 weeks, mean) was 59 ± 5 mmHg and the SBP ([6]; 4 weeks, mean) was 125 ± 17 mmHg. The DBP ([6]; 8 weeks) was 61 mmHg and 53 mmHg and 75 mmHg, the SBP ([6]; 8 weeks) was 121 mmHg and 107 mmHg and 133 mmHg and the DBP ([6]; 8 weeks, mean) was 63 ± 11 mmHg. The SBP ([6]; 8 weeks, mean) was 120 ± 13 mmHg, the DBP ([6]; Baseline) was 67 mmHg and 60 mmHg and 82 mmHg and the DBP ([6]; Baseline, mean) was 70 ± 11 mmHg. The SBP [6, 7] was 131 mmHg and 125 mmHg and 148 mmHg, the SBP [6, 8] was 135 ± 12 mmHg and the “DBP decreased by on average, compared with the baseline” value [6, 9] was 7±0 mmHg. The “SBP decreased by on average, compared with the baseline” value [6, 9] was 14±4 mmHg.
